Source: ChEMBL document CHEMBL1201862, “PubChem BioAssay data set” (2004)
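Method: 48-hour compound exposure of cells in 96-well plates, five concentrations, linear interpolation of endpoints. The concentration for 50% growth inhibition is given as GI50.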 The source made the active and inactive calls. No stated cut-off is given here; in the data, active = GI50 up to about 1.1 µM and inactive = higher.

What was measured:
Assay in all cases: DTP human tumour cell line panel, 48 h
786-0 = system: 786-0
A549 = system: A549
COLO 205 = system: COLO 205
HCT-116 = system: HCT-116
HL-60 = system: HL-60
IGROV-1 = system: IGROV-1
LOX IMVI = system: LOX IMVI
MDA-MB-231 = system: MDA-MB-231
MDA-N = system: MDA-N
NCI-H23 = system: NCI-H23
NCI-H522 = system: NCI-H522
OVCAR-8 = system: OVCAR-8
PC-3 = system: PC-3
SF-295 = system: SF-295
SK-MEL-28 = system: SK-MEL-28
SK-MEL-2 = system: SK-MEL-2
SK-MEL-5 = system: SK-MEL-5
SW-620 = system: SW-620
TK-10 = system: TK-10
T47D = system: T47D

Measured: GI50

Cc1cccc(CC(Cc2c(C)cccc2C(=O)O)C(=O)O)c1 (stereo unspecified)
inactive: 786-0 > 100 µM | A549 > 100 µM | COLO 205 > 100 µM | HCT-116 > 100 µM | HL-60 > 100 µM | IGROV-1 > 100 µM | LOX IMVI > 100 µM | MDA-MB-231 > 100 µM | MDA-N > 100 µM | NCI-H23 > 100 µM | NCI-H522 > 100 µM | OVCAR-8 > 100 µM | PC-3 > 100 µM | SF-295 > 100 µM | SK-MEL-28 > 100 µM | SK-MEL-2 58.7 µM | SK-MEL-5 4.49 µM | SW-620 > 100 µM | TK-10 > 100 µM

COc1cc2nc(-c3cccs3)[nH]c(=O)c2cc1OC
inactive: 786-0 > 100 µM | A549 > 100 µM | COLO 205 > 100 µM | HCT-116 70.6 µM | HL-60 35.4 µM | IGROV-1 19.9 µM | LOX IMVI > 100 µM | MDA-MB-231 23.2 µM | NCI-H23 > 100 µM | NCI-H522 > 100 µM | OVCAR-8 > 100 µM | PC-3 > 100 µM | SF-295 86.7 µM | SK-MEL-28 > 100 µM | SK-MEL-2 > 100 µM | SK-MEL-5 > 100 µM | SW-620 > 100 µM | T47D > 100 µM | TK-10 > 100 µM

COc1ccc(-c2c(C#N)c(-c3ccc(C)cc3)n(NS(=O)(=O)c3ccc(C)cc3)c(=O)c2C#N)cc1
inactive: 786-0 86.5 µM | A549 41 µM | COLO 205 90.2 µM | HCT-116 38.5 µM | IGROV-1 39.5 µM | LOX IMVI 39.3 µM | MDA-MB-231 > 100 µM | MDA-N 75 µM | NCI-H522 80.7 µM | OVCAR-8 72.3 µM | PC-3 36.6 µM | SF-295 37.8 µM | SK-MEL-28 61.1 µM | SK-MEL-2 58.9 µM | SK-MEL-5 23.5 µM | SW-620 49.5 µM | TK-10 87.3 µM

CC(=O)/C=C\C(=O)NNS(=O)(=O)c1ccc(C)cc1
inactive: 786-0 > 100 µM | A549 > 100 µM | COLO 205 > 100 µM | HCT-116 > 100 µM | HL-60 > 100 µM | IGROV-1 > 100 µM | LOX IMVI > 100 µM | NCI-H23 > 100 µM | NCI-H522 > 100 µM | OVCAR-8 > 100 µM | SF-295 > 100 µM | SK-MEL-28 > 100 µM | SK-MEL-2 > 100 µM | SK-MEL-5 > 100 µM | SW-620 > 100 µM | TK-10 > 100 µM

CCC/C(=N\NC(=O)c1cc2ccccc2cc1O)C(CC)C(=O)CCC(=O)N(Cc1ccccc1)Cc1ccccc1 (stereo unspecified)
inactive: 786-0 25.7 µM | A549 63 µM | COLO 205 28.5 µM | HCT-116 41 µM | HL-60 13 µM | IGROV-1 34.5 µM | LOX IMVI 43 µM | NCI-H23 76.2 µM | NCI-H522 39.1 µM | OVCAR-8 49.9 µM | SF-295 33.9 µM | SK-MEL-28 > 100 µM | SK-MEL-2 28.6 µM | SK-MEL-5 23.4 µM | SW-620 64 µM | TK-10 > 100 µM

CCCC(=O)Oc1cc(OC(=O)CCC)c2c(C)cc(=O)oc2c1
inactive: 786-0 82.6 µM | A549 92.9 µM | COLO 205 40 µM | HCT-116 50.1 µM | IGROV-1 44.1 µM | LOX IMVI 40.1 µM | MDA-MB-231 > 100 µM | MDA-N 62.2 µM | NCI-H23 71 µM | OVCAR-8 75.7 µM | PC-3 76.2 µM | SF-295 78.7 µM | SK-MEL-28 > 100 µM | SK-MEL-2 > 100 µM | SK-MEL-5 67.9 µM | SW-620 49.9 µM | TK-10 > 100 µM

C1=CC=C2NCCSCC/N=C3/C=CC=CC=C3NCCSCC/N=C\2C=C1
inactive: 786-0 > 100 µM | A549 > 100 µM | COLO 205 > 100 µM | HCT-116 > 100 µM | HL-60 > 100 µM | IGROV-1 > 100 µM | LOX IMVI > 100 µM | NCI-H23 > 100 µM | NCI-H522 > 100 µM | OVCAR-8 > 100 µM | SF-295 > 100 µM | SK-MEL-28 > 100 µM | SK-MEL-2 > 100 µM | SK-MEL-5 > 100 µM | SW-620 > 100 µM | TK-10 > 100 µM

CN(C)CC1(C)CC/C(=C\c2ccc(Cl)cc2)C1=O (stereo unspecified)
inactive: 786-0 59.2 µM | A549 66.8 µM | COLO 205 17.4 µM | HCT-116 34.3 µM | HL-60 19.7 µM | IGROV-1 74 µM | LOX IMVI 31.3 µM | NCI-H23 57.4 µM | NCI-H522 17.7 µM | OVCAR-8 40.1 µM | SF-295 67.1 µM | SK-MEL-28 > 100 µM | SK-MEL-2 > 100 µM | SK-MEL-5 39 µM | SW-620 16.5 µM | TK-10 88.5 µM
